ChEMBL document CHEMBL1201862, “PubChem BioAssay data set” (2004)
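In this assay, cells in 96-well plates receive the compound at five concentrations for 48 hours. Endpoints are linearly interpolated between the surrounding concentrations. At the GI50, growth is halved.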 Calls of active or inactive are those of the source. Rule as the data show it: active = GI50 up to about 1.1 µM and inactive = higher.

How the values were obtained:
Assay in all cases: DTP human tumour cell line panel, 48 h
A498 = tested on: A498
A549 = tested on: A549
ACHN = tested on: ACHN
COLO 205 = tested on: COLO 205
HCT-15 = tested on: HCT-15
HOP-62 = tested on: HOP-62
LOX IMVI = tested on: LOX IMVI
M14 = tested on: M14
Malme-3M = tested on: Malme-3M
NCI-H226 = tested on: NCI-H226
OVCAR-4 = tested on: OVCAR-4
RXF 393 = tested on: RXF 393
SK-MEL-28 = tested on: SK-MEL-28
SK-MEL-2 = tested on: SK-MEL-2
SNB-19 = tested on: SNB-19
SR = tested on: SR
TK-10 = tested on: TK-10
U-251 = tested on: U-251
UO-31 = tested on: UO-31
HL-60 = tested on: HL-60

Compound	GI50 (A498)	GI50 (A549)	GI50 (ACHN)	GI50 (COLO 205)	GI50 (HCT-15) [µM]	GI50 (HOP-62)	GI50 (LOX IMVI)	GI50 (M14)	GI50 (Malme-3M)	GI50 (NCI-H226)	GI50 (OVCAR-4)	GI50 (RXF 393)	GI50 (SK-MEL-28)	GI50 (SK-MEL-2)	GI50 (SNB-19)	GI50 (SR)	GI50 (TK-10)	GI50 (U-251)	GI50 (UO-31)	GI50 (HL-60)
CC(=O)c1cc2c(s1)C(=O)c1sccc1C2=O	1.26 µM (inactive)	0.207 µM (active)	0.0209 µM (active)	1.31 µM (inactive)	0.0214	0.0434 µM (active)	0.0102 µM (active)	0.0274 µM (active)	0.0163 µM (active)	0.198 µM (active)	0.0706 µM (active)	0.0254 µM (active)	0.014 µM (active)	0.076 µM (active)	0.0766 µM (active)	0.0133 µM (active)	0.212 µM (active)	0.017 µM (active)	0.0314 µM (active)	
C=C1CC(Cn2ccc(=O)[nH]c2=O)(c2ccc(Cl)cc2)OC1=O (configuration not stated)	16.4 µM (inactive)	16.9 µM (inactive)	5.15 µM (inactive)	1.73 µM (inactive)	2.45	18.2 µM (inactive)	2.14 µM (inactive)	3.56 µM (inactive)	2.46 µM (inactive)	22.9 µM (inactive)	1.88 µM (inactive)		4.3 µM (inactive)	5.65 µM (inactive)	31.4 µM (inactive)	2.02 µM (inactive)	1.57 µM (inactive)	17.7 µM (inactive)	18 µM (inactive)	8.47 µM (inactive)
COC(=O)c1onc(C2OC(C)(C)OC2C(O)COC(c2ccccc2)(c2ccccc2)c2ccccc2)c1C(=O)OC (configuration not stated)	> 100 µM (inactive)	> 100 µM (inactive)	> 100 µM (inactive)	> 100 µM (inactive)	> 100	> 100 µM (inactive)		> 100 µM (inactive)	> 100 µM (inactive)	> 100 µM (inactive)	> 100 µM (inactive)	> 100 µM (inactive)	> 100 µM (inactive)	> 100 µM (inactive)	> 100 µM (inactive)	84.3 µM (inactive)	> 100 µM (inactive)	> 100 µM (inactive)	> 100 µM (inactive)	> 100 µM (inactive)
CCOC(=O)c1c(N2CCCC2)[nH]c(=O)c(C(c2ccc(Cl)c([N+](=O)[O-])c2)c2c(O)c(C(=O)OCC)c(N3CCCC3)[nH]c2=O)c1O	33 µM (inactive)	> 100 µM (inactive)	34.3 µM (inactive)	> 100 µM (inactive)	> 100	27.4 µM (inactive)	19.3 µM (inactive)	20.8 µM (inactive)	38.9 µM (inactive)	63.5 µM (inactive)	> 100 µM (inactive)	31.7 µM (inactive)	35.3 µM (inactive)		15.5 µM (inactive)	40.3 µM (inactive)	19.2 µM (inactive)	14.9 µM (inactive)	24.7 µM (inactive)	
C#CCOCn1ccc(=O)[nH]c1=O	> 100 µM (inactive)	> 100 µM (inactive)	> 100 µM (inactive)	> 100 µM (inactive)	> 100	> 100 µM (inactive)	> 100 µM (inactive)	> 100 µM (inactive)	> 100 µM (inactive)	> 100 µM (inactive)	> 100 µM (inactive)		> 100 µM (inactive)	> 100 µM (inactive)	> 100 µM (inactive)	> 100 µM (inactive)	> 100 µM (inactive)	> 100 µM (inactive)	> 100 µM (inactive)	> 100 µM (inactive)
O=C(C(Cl)=C(Nc1ccccc1)Nc1ccccc1)C(Cl)Cl	24.8 µM (inactive)	38.5 µM (inactive)	27.5 µM (inactive)	30.6 µM (inactive)	11	15.5 µM (inactive)	13.2 µM (inactive)	16.8 µM (inactive)	20.3 µM (inactive)	39.1 µM (inactive)	36.1 µM (inactive)	14.6 µM (inactive)	33.2 µM (inactive)		26.2 µM (inactive)	16.5 µM (inactive)	40.3 µM (inactive)		33.6 µM (inactive)	17.4 µM (inactive)
COCOc1ccc(C(=O)C(C)c2ccc(OCOC)cc2OCOC)c(O)c1 (configuration not stated)	> 100 µM (inactive)	97.3 µM (inactive)	> 100 µM (inactive)	> 100 µM (inactive)	78.9	> 100 µM (inactive)		> 100 µM (inactive)	> 100 µM (inactive)		> 100 µM (inactive)	37.2 µM (inactive)	> 100 µM (inactive)		> 100 µM (inactive)	40.7 µM (inactive)	> 100 µM (inactive)	> 100 µM (inactive)	33.2 µM (inactive)	30.9 µM (inactive)
Cc1nn(C)c2nc3ccc(Cl)cc3c(-c3ccccc3)c12	> 100 µM (inactive)	79.6 µM (inactive)	> 100 µM (inactive)	> 100 µM (inactive)	> 100	> 100 µM (inactive)		> 100 µM (inactive)	> 100 µM (inactive)	> 100 µM (inactive)	> 100 µM (inactive)	> 100 µM (inactive)	> 100 µM (inactive)	> 100 µM (inactive)	> 100 µM (inactive)	> 100 µM (inactive)		> 100 µM (inactive)	> 100 µM (inactive)	> 100 µM (inactive)
